Results published in patent US9290451B2 (Hoffmann-La Roche Inc., priority 2011, dated 2016).

Columns and labels:
human CB2 receptors = human CB2 receptors (Homo sapiens (Human), UniProt P34972); assay: cAMP assay, CHO cells expressing human CB2 receptors; format: cell-based; conditions: CHO cells expressing human CB2, cAMP; read-out: human CB2 EC50
Method in brief: (§1)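 CHO cells, KRB buffer + 1 mM IBMX, 30 min 30 °C preincubation; compound 30 min 30 °C; lysis + TR-FRET cAMP detection, 2 h RT; cAMP from standard curve (10 μM–0.13 nM); EC50.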

human CB1 receptors = human CB1 receptors (Homo sapiens (Human), UniProt P21554); assay: cAMP assay, CHO cells expressing human CB1 receptors; format: cell-based; conditions: CHO cells expressing human CB1, cAMP; read-out: human CB1 EC50
Method in brief: as §1

Sequence of human CB2 receptors (P34972 whole entry): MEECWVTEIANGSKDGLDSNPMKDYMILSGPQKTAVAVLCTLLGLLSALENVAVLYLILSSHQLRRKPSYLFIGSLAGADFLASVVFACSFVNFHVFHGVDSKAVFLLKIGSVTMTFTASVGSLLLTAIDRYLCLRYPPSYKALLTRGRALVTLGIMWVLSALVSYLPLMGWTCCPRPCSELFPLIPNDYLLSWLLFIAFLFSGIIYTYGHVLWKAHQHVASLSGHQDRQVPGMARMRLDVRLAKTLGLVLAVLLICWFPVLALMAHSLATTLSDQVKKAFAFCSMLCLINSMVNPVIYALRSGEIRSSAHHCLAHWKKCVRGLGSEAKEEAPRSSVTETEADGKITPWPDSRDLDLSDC
Sequence of human CB1 receptors (P21554 whole entry): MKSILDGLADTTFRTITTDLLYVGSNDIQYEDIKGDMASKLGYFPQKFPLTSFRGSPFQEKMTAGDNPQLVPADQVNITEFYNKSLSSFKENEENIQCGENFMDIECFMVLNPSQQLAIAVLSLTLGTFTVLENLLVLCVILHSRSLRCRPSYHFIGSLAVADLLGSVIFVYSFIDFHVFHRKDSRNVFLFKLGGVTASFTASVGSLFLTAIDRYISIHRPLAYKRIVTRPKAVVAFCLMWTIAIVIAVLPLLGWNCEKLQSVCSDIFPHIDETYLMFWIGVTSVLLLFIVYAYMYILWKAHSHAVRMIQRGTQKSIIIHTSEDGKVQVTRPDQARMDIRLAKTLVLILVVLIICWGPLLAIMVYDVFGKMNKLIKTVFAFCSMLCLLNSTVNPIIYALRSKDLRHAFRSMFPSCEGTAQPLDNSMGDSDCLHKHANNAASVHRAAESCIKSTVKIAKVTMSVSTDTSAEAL

| SMILES | EC50 (human CB2 receptors) | EC50 (human CB1 receptors) |
| --- | --- | --- |
| CC(C)(NC(=O)c1ccc(C(F)(F)F)c(OCC2CC2)n1)c1nccs1 [Example 121, 6-Cyclopropylmethoxy-5-trifluoromethyl-pyridine-2-carboxylic acid (1-methyl-1-thiazol-2-yl-ethyl)-amide] | 111 nM | 1.35 µM |
| O=C(NC1CCCCC1CO)c1cccc(C2CCCCC2)n1 (centres unmarked) [Example 122, 6-Cyclohexyl-pyridine-2-carboxylic acid (2-hydroxymethyl-cyclohexyl)-amide] | 158 nM | > 10 µM |
| Cc1nc(C(C)(C)NC(=O)c2ccc(C3CCCO3)c(OCC3CC3)n2)no1 (centres unmarked) [Example 123, 6-Cyclopropylmethoxy-5-(tetrahydro-furan-2-yl)-pyridine-2-carboxylic acid [1-methyl-1-(5-methyl-[1,2,4]oxadiazol-3-yl)-ethyl]-amide] | 20 nM | > 10 µM |
| Cc1nc(C(C)(C)NC(=O)c2ccc(C3CCOC3)c(OCC3CC3)n2)no1 (centres unmarked) [Example 124, 6-Cyclopropylmethoxy-5-(tetrahydro-furan-3-yl)-pyridine-2-carboxylic acid [1-methyl-1-(5-methyl-[1,2,4]oxadiazol-3-yl)-ethyl]-amide] | 79.2 nM | > 10 µM |
| Cc1nc(C(C)(C)NC(=O)c2ccc(C3CCCO3)c(-c3cccc(Cl)c3)n2)no1 (centres unmarked) [Example 125, 6-(3-Chloro-phenyl)-5-(tetrahydro-furan-2-yl)-pyridine-2-carboxylic acid [1-methyl-1-(5-methyl-[1,2,4]oxadiazol-3-yl)-ethyl]-amide] | 209 nM | > 10 µM |
| CC(C)(NC(=O)c1ccc(C2CCCO2)c(-c2cccc(Cl)c2)n1)c1ncco1 (centres unmarked) [Example 126, 6-(3-Chloro-phenyl)-5-(tetrahydro-furan-2-yl)-pyridine-2-carboxylic acid (1-methyl-1-oxazol-2-yl-ethyl)-amide] | 240 nM | > 10 µM |
| CC(C)(NC(=O)c1ccc(C2CCCO2)c(-c2cccc(Cl)c2)n1)c1nccs1 (centres unmarked) [Example 127, 6-(3-Chloro-phenyl)-5-(tetrahydro-furan-2-yl)-pyridine-2-carboxylic acid (1-methyl-1-thiazol-2-yl-ethyl)-amide] | 224 nM | > 10 µM |
| CC(C)(NC(=O)c1ccc(C2CCCC2)c(-c2cccc(Cl)c2)n1)c1nccs1 [Example 128, 6-(3-Chloro-phenyl)-5-cyclopentyl-pyridine-2-carboxylic acid (1-methyl-1-thiazol-2-yl-ethyl)-amide] | 240 nM | > 10 µM |
| CC(C)(NC(=O)c1ccc(C(F)(F)F)c(OCC2CC2)n1)c1ncco1 [Example 129, 6-Cyclopropylmethoxy-5-trifluoromethyl-pyridine-2-carboxylic acid (1-methyl-1-oxazol-2-yl-ethyl)-amide] | 184 nM | > 10 µM |
| Cc1ccc(C(=O)N[C@@H](CC2CC2)C(N)=O)nc1OCC1CC1 [Example 130, 6-Cyclopropylmethoxy-5-methyl-pyridine-2-carboxylic acid ((S)-1-carbamoyl-2-cyclopropyl-ethyl)-amide] | 50 nM | > 10 µM |
| CC(C)C[C@H](NC(=O)c1ccc(N2CC(O)C2)c(OCC2CC2)n1)C(N)=O [Example 131, 6-Cyclopropylmethoxy-5-(3-hydroxy-azetidin-1-yl)-pyridine-2-carboxylic acid ((S)-1-carbamoyl-3-methyl-butyl)-amide] | 78.4 nM | > 10 µM |
| CC(C)C[C@H](NC(=O)c1ccc(N2CC(F)(F)C2)c(OCC2CC2)n1)C(N)=O [Example 132, 6-Cyclopropylmethoxy-5-(3,3-difluoro-azetidin-1-yl)-pyridine-2-carboxylic acid ((S)-1-carbamoyl-3-methyl-butyl)-amide] | 0.8 nM | 1.13 µM |
| NC(=O)[C@H](CC1CC1)NC(=O)c1ccc(NC2CC2)c(OCC2CC2)n1 [Example 133, 5-Cyclopropylamino-6-cyclopropylmethoxy-pyridine-2-carboxylic acid ((S)-1-carbamoyl-2-cyclopropyl-ethyl)-amide] | 37.7 nM | > 10 µM |
| CC(C)C[C@H](NC(=O)c1ccc(NC2CC2)c(OCC2CC2)n1)C(N)=O [Example 134, 5-Cyclopropylamino-6-cyclopropylmethoxy-pyridine-2-carboxylic acid ((S)-1-carbamoyl-3-methyl-butyl)-amide] | 5.1 nM | 0.151 µM |
| CC(C)(O)[C@H](CC1CC1)NC(=O)c1ccc(N2CC(F)(F)C2)c(OCC2CC2)n1 [Example 135, 6-Cyclopropylmethoxy-5-(3,3-difluoro-azetidin-1-yl)-pyridine-2-carboxylic acid ((S)-1-cyclopropylmethyl-2-hydroxy-2-methyl-propyl)-amide] | 38.2 nM | > 10 µM |
| NC(=O)[C@H](CC1CC1)NC(=O)c1ccc(C2CCOC2)c(OCC2CC2)n1 (stereo partly drawn) [Example 136, 6-Cyclopropylmethoxy-5-(tetrahydro-furan-3-yl)-pyridine-2-carboxylic acid ((S)-1-carbamoyl-2-cyclopropyl-ethyl)-amide] | 65.4 nM | > 10 µM |

| SMILES | EC50 (human CB2 receptors) | EC50 (human CB1 receptors) |
| --- | --- | --- |
| O=C(NC1CCCCC1O)c1ccc(N2CC(F)(F)C2)c(OCC2CC2)n1 (centres unmarked) [Example 137, 6-Cyclopropylmethoxy-5-(3,3-difluoro-azetidin-1-yl)-pyridine-2-carboxylic acid (2-hydroxy-cyclohexyl)-amide] | 211 nM | > 10 µM |
| Cc1nc([C@H](CC2CC2)NC(=O)c2ccc(N3CC(F)(F)C3)c(OCC3CC3)n2)no1 [Example 138, 6-Cyclopropylmethoxy-5-(3,3-difluoro-azetidin-1-yl)-pyridine-2-carboxylic acid [(S)-2-cyclopropyl-1-(5-methyl-[1,2,4]oxadiazol-3-yl)-ethyl]-amide] | 26.7 nM | > 10 µM |
| CC(C)(O)[C@H](CC1CC1)NC(=O)c1ccc(C2CC2)c(OCC2CC2)n1 [Example 139, 5-Cyclopropyl-6-cyclopropylmethoxy-pyridine-2-carboxylic acid ((S)-1-cyclopropylmethyl-2-hydroxy-2-methyl-propyl)-amide] | 113 nM | > 10 µM |
| CC(C)C[C@H](NC(=O)c1ccc(N2CC(F)(F)C2)c(-c2cccc(Cl)c2)n1)C(N)=O [Example 140, 6-(3-Chloro-phenyl)-5-(3,3-difluoro-azetidin-1-yl)-pyridine-2-carboxylic acid ((S)-1-carbamoyl-3-methyl-butyl)-amide] | 305 nM | > 10 µM |
| CC(C)(CO)NC(=O)c1ccc(C2CCOC2)c(OCC2CC2)n1 (centres unmarked) [Example 141, 6-Cyclopropylmethoxy-5-(tetrahydro-furan-3-yl)-pyridine-2-carboxylic acid (2-hydroxy-1,1-dimethyl-ethyl)-amide] | 459 nM | > 10 µM |
| COCCOc1nc(C(=O)N[C@@H](CC(C)C)C(N)=O)ccc1C1CC1 [Example 142, 5-Cyclopropyl-6-(2-methoxy-ethoxy)-pyridine-2-carboxylic acid ((S)-1-carbamoyl-3-methyl-butyl)-amide] | 14.4 nM | > 10 µM |
| CC1(C)CCc2ccc(C(=O)NC[C@](C)(O)C3CC3)nc2C1 [Example 143, 7,7-Dimethyl-5,6,7,8-tetrahydro-quinoline-2-carboxylic acid ((R)-2-cyclopropyl-2-hydroxy-propyl)-amide] | 410 nM | > 10 µM |
| Cc1nc(C(C)(C)NC(=O)c2ccc3c(n2)CC(C)(C)CC3)no1 [Example 144, 7,7-dimethyl-N-(2-(5-methyl-1,2,4-oxadiazol-3-yl)propan-2-yl)-5,6,7,8-tetrahydroquinoline-2-carboxamide] | 22.8 nM | 0.739 µM |
| CC1(C)CCc2ccc(C(=O)NC(C)(C)CO)nc2C1 [Example 145, N-(1-hydroxy-2-methylpropan-2-yl)-7,7-dimethyl-5,6,7,8-tetrahydroquinoline-2-carboxamide] | 289 nM | > 10 µM |
| O=C(N[C@@H](CC1CC1)c1nccs1)c1ccc(N2CC(F)(F)C2)c(OCC2CC2)n1 [Example 146, 6-Cyclopropylmethoxy-5-(3,3-difluoro-azetidin-1-yl)-pyridine-2-carboxylic acid ((S)-2-cyclopropyl-1-thiazol-2-yl-ethyl)-amide] | 36.6 nM | > 10 µM |
| O=C(NCc1ccccn1)c1ccc(N2CC(F)(F)C2)c(OCC2CC2)n1 [Example 147, 6-Cyclopropylmethoxy-5-(3,3-difluoro-azetidin-1-yl)-pyridine-2-carboxylic acid (pyridin-2-ylmethyl)-amide] | 922 nM | > 10 µM |
| O=C(c1ccc(N2CC(F)(F)C2)c(OCC2CC2)n1)N1CCC[C@H]1CO [Example 149, [6-Cyclopropylmethoxy-5-(3,3-difluoro-azetidin-1-yl)-pyridin-2-yl]-((S)-2-hydroxymethyl-pyrrolidin-1-yl)-methanone] | 174 nM | > 10 µM |
| CC(C)C[C@H](NC(=O)c1ccc(C2(O)COC2)c(OCC2CC2)n1)C(N)=O [Example 150, 6-Cyclopropylmethoxy-5-(3-hydroxy-oxetan-3-yl)-pyridine-2-carboxylic acid ((S)-1-carbamoyl-3-methyl-butyl)-amide] | 157 nM | > 10 µM |
| Cc1nc(C(C)(C)NC(=O)c2ccc(C3CCOC3)c(-c3cccc(Cl)c3)n2)no1 (centres unmarked) [Example 151, 6-(3-Chloro-phenyl)-5-(tetrahydro-furan-3-yl)-pyridine-2-carboxylic acid [1-methyl-1-(5-methyl-[1,2,4]oxadiazol-3-yl)-ethyl]-amide] | 351 nM | > 10 µM |
| COCCOCC(C)(C)NC(=O)c1ccc(N2CC(F)(F)C2)c(-c2cccc(Cl)c2)n1 [Example 152, 6-(3-Chloro-phenyl)-5-(3,3-difluoro-azetidin-1-yl)-pyridine-2-carboxylic acid [2-(2-methoxy-ethoxy)-1,1-dimethyl-ethyl]-amide] | 442 nM | > 10 µM |
